From patent EP4813980A1, “EP300/CBP REGULATOR, AND PREPARATION METHOD THEREFOR AND USE THEREOF” (Miracure Biotechnology Limited, priority 2023, dated 2025)

Legend:
CBP bromodomain = target: T1, CBP bromodomain (Homo sapiens, UniProt Q92793); assay: CBP AlphaLISA Assay Kit: binding of CBP bromodomain to acetylated histone substrate; conditions: 30 min incubation with CBP and biotinylated substrate, N=2, unit inferred
T1 construct: purchased
Description: The biochemical activity test of CBP preparations was detected using CBP AlphaLISA® Assay Kit. The detection principle is based on the binding of CBP bromodomain to acetylated histone substrate. The compounds were incubated with CBP and biotinylated substrate for 30 min, followed by the addition of acceptor beads for 15 min and donor beads for 15 min. Alpha counts were read, data were analyzed using Prism 7.0 and IC50 values were calculated.

BRD4 = BRD4 (Homo sapiens, UniProt O60885); assay: BRD4 counter-assay, tabulated with the CBP AlphaLISA test; assay type: binding; conditions: unit inferred
22RV1 cells = assay: Cell growth inhibition, CellTiter-Glo, 72 h; assay type: cell-based; conditions: Homo sapiens, 72 h culture, mean of N=2
How it was run: (§1)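 Cells seeded at 5×10^3/well in RPMI-1640 with 10% FBS, compound added next day at 0.5% DMSO final, 72 h at 37°C. CellTiter-Glo luminescence read; % inhibition normalised to 0.5% DMSO (0%) and 1% Tween 20 (100%), plotted against concentration in nM; mean ± SEM, N=2.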

MM1S cells = assay: Cell growth inhibition, CellTiter-Glo, 72 h; assay type: cell-based; conditions: 72 h culture, mean of N=2
How it was run: as §1

OPM-2 cells = assay: Cell growth inhibition, CellTiter-Glo, 72 h; assay type: cell-based; conditions: Homo sapiens, 72 h culture, mean of N=2
How it was run: as §1

vCap cells = assay: Cell growth inhibition, CellTiter-Glo, 72 h; assay type: cell-based; conditions: Homo sapiens, 72 h culture, mean of N=2
How it was run: as §1

T1 sequence (Q92793 1085-1192 limits assumed): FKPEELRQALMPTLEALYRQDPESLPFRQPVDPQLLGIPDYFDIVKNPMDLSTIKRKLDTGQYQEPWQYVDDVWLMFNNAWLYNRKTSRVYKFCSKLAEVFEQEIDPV

| SMILES | IC50 (CBP bromodomain) | IC50 (BRD4) | IC50 (22RV1 cells) | IC50 (MM1S cells; Homo sapiens, MM1.S) | IC50 (OPM-2 cells) | IC50 (vCap cells) | IC50 (MM1S cells) |
| --- | --- | --- | --- | --- | --- | --- | --- |
| C=CS(=O)(=O)N[C@H]1CC[C@H](c2cc3c(c(N4CCCc5cc(-c6cnn(C)c6)c(C(F)F)cc54)c2)CN(C(C)=O)C3)CC1 [Compound 1343] | 7.5 nM | 7880 nM | 205 nM | 39 nM | 8 nM | – | – |
| CO[C@H]1CC[C@H](n2c([C@@H]3CCCC(=O)N3c3ccc(F)c(F)c3)nc3cc(-c4c(C)noc4C)ccc32)CC1 [CCS1477] | – | 7250 nM | 2520 nM | – | 37 nM | 140 nM | 220 nM |
| C=CS(=O)(=O)N1CCC(c2cc3c(c(N4CCCc5cc(-c6cnn(C)c6)c(C(F)F)cc54)c2)CN(C(=O)NC)CC3)CC1 [Compound 1347] | 7.5 nM | > 10000 nM | 155 nM | 26 nM | 2 nM | – | – |
| C=CC(=O)N[C@H]1CC[C@@H](c2cc3c(c(N4CCCc5cc(-c6cnn(C)c6)c(C(F)F)cc54)c2)CN(C(C)=O)C3)CC1 [Compound 1339] | 4.7 nM | 7430 nM | 2500 nM | 48 nM | 8 nM | – | – |
| C=CS(=O)(=O)N1CCC(c2cc3c(c(N4CCCc5cc(-c6cnn(C)c6)c(C(F)F)cc54)c2)CN(C(C)=O)C3)CC1 [Compound 1344] | 7 nM | 7920 nM | 263 nM | 68 nM | 15 nM | 33 nM | – |
| CC(=O)N1Cc2cc(C3CCN(C(=O)/C=C/CN(C)C)CC3)cc(N3CCCc4cc(-c5cnn(C)c5)c(C(F)F)cc43)c2C1 [Compound 1357] | 0.96 nM | 5710 nM | 5420 nM | 58 nM | – | – | – |
| C=CS(=O)(=O)N[C@H]1CC[C@H](n2nc(N3CCCc4cc(-c5cnn(C)c5)c(C(F)F)cc43)c3c2CCN(C(=O)NC)C3)CC1 [Compound 1374, 3-(7-(difluoromethyl)-6-(1-methyl-1H-pyrazol-4-yl)-3,4-dihydroquinolin-1(2H)-yl)-N-methyl-1-((1r,4r)-4-(vinylsulfonamido)cyclohexyl)-1,4,6,7-tetrahydro-5H-pyrazolo[4,3-c]pyridine-5-carboxamide] | – | – | 11 nM | 1 nM | 1 nM | 1 nM | – |
| CC(=O)N1Cc2cc(C3CCN(Cc4ccc(COc5cccc6c5CN(C5CCC(=O)NC5=O)C6=O)cc4)CC3)cc(N3CCCc4cc(-c5cnn(C)c5)c(C(F)F)cc43)c2C1 (centres unmarked) [Compound 2006, 3-[4-({4-[(4-{2-acetyl-7-[7-(difluoromethyl)-6-(1-methylpyrazol-4-yl)-3,4-dihydro-2H-quinolin-1-yl]-1 ,3-dihydroisoindol-5-yl}piperidin-1-yl)methyl]phenyl}methoxy)-1-oxo-3H-isoindol-2-yl]piperidine-2,6-dione] | – | – | 0.47 nM | 0.27 nM | 0.19 nM | 0.4 nM | – |
| C=CS(=O)(=O)N[C@H]1CC[C@H](n2nc(N3CCCc4cc(-c5cnn(C)c5)c(C(F)F)cc43)c3c2CCN(C(C)=O)C3)CC1 [Compound 1387, N-((1r,4r)-4-(5-acetyl-3-(7-(difluoromethyl)-6-(1-methyl-1H-pyrazol-4-yl)-3,4-dihydroquinolin-1(2H)-yl)-4,5,6,7-tetrahydro-1H-pyrazolo[4,3-c]pyridin-1-yl)cyclohexyl)ethenesulfonamide] | – | – | 18 nM | 3 nM | 1 nM | 3 nM | – |
| C=CS(=O)(=O)N[C@H]1CC[C@H](c2cc3c(c(N4CCCc5cc(-c6cnn(C)c6)c(C(F)F)cc54)c2)CN(C(=O)NC)CC3)CC1 [Compound 1367, 8-(7-(difluoromethyl)-6-(1-methyl-1H-pyrazol-4-yl)-3,4-dihydroquinolin-1(2H)-yl)-N-methyl-6-((1r,4r)-4-(vinylsulfonamido)cyclohexyl)-3,4-dihydroisoquinoline-2(1H)-carboxamide] | – | – | 135 nM | 33 nM | 4 nM | 46 nM | – |
| C=CS(=O)(=O)N[C@H]1CC[C@@H](c2cc3c(c(N4CCCc5cc(-c6cnn(C)c6)c(C(F)F)cc54)c2)CN(C(C)=O)C3)CC1 [Compound 1345, N-((1s,4s)-4-(2-acetyl-7-(7-(difluoromethyl)-6-(1-methyl-1H-pyrazol-4-yl)-3,4-dihydroquinolin-1(2H)-yl)isoindolin-5-yl)cyclohexyl)ethenesulfonamide] | 9.3 nM | > 10000 nM | 48 nM | 15 nM | 4 nM | 12 nM | – |
| C=CS(=O)(=O)N[C@H]1CC[C@@H](n2nc(N3CCCc4cc(-c5cnn(C)c5)c(C(F)F)cc43)c3c2CCN(C(=O)NC)C3)CC1 [Compound 1375, 3-(7-(difluoromethyl)-6-(1-methyl-1H-pyrazol-4-yl)-3,4-dihydroquinolin-1(2H)-yl)-N-methyl-1-((1s,4s)-4-(vinylsulfonamido)cyclohexyl)-1,4,6,7-tetrahydro-5H-pyrazolo[4,3-c]pyridine-5-carboxamide] | – | – | 16 nM | 2 nM | 1 nM | 2 nM | – |
